Test results published in patent publication US20110082157A1, “Piperidinylamino-Thieno [2,3-D] Pyrimidine Compounds” (priority 2004, published 2011).
pIC50, pKi: −log10 of the molar value. Counter-ions that a name gives are not always drawn. Like-named read-outs stand apart in the source and are kept apart here.

Key:
5HT2B [1] = biological target: T1, 5HT2B (Homo sapiens, UniProt P41595); test: Functional activity IC50 (5HT2B antagonist); format: cell-based
Rat pK = settings: in vivo; for bioavailability: read-out: Rat pK: % F
HLM T1/2 = settings: human, liver microsomes
D2S [2] = biological target: T2, D2S (Homo sapiens, UniProt P14416); test: D2S binding (Ki)
T2 sequence (P14416 1-414 isoform P14416-2): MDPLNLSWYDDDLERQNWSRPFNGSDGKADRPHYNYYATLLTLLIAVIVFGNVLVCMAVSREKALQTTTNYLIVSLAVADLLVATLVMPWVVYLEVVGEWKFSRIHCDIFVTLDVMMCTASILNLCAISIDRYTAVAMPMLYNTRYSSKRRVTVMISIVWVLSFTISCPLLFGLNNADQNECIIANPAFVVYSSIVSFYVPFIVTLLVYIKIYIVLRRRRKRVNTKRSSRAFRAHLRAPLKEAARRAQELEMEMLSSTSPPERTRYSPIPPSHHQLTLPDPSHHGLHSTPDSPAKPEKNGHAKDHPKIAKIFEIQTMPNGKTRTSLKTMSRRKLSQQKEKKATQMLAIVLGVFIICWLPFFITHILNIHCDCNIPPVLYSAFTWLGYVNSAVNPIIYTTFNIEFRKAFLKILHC

IP3 = test: IC50 (IP3); format: cell-based
hERG = hERG (Homo sapiens, UniProt Q12809); test: hERG % inhibition at 1 uM
Chain of hERG (Q12809 whole entry): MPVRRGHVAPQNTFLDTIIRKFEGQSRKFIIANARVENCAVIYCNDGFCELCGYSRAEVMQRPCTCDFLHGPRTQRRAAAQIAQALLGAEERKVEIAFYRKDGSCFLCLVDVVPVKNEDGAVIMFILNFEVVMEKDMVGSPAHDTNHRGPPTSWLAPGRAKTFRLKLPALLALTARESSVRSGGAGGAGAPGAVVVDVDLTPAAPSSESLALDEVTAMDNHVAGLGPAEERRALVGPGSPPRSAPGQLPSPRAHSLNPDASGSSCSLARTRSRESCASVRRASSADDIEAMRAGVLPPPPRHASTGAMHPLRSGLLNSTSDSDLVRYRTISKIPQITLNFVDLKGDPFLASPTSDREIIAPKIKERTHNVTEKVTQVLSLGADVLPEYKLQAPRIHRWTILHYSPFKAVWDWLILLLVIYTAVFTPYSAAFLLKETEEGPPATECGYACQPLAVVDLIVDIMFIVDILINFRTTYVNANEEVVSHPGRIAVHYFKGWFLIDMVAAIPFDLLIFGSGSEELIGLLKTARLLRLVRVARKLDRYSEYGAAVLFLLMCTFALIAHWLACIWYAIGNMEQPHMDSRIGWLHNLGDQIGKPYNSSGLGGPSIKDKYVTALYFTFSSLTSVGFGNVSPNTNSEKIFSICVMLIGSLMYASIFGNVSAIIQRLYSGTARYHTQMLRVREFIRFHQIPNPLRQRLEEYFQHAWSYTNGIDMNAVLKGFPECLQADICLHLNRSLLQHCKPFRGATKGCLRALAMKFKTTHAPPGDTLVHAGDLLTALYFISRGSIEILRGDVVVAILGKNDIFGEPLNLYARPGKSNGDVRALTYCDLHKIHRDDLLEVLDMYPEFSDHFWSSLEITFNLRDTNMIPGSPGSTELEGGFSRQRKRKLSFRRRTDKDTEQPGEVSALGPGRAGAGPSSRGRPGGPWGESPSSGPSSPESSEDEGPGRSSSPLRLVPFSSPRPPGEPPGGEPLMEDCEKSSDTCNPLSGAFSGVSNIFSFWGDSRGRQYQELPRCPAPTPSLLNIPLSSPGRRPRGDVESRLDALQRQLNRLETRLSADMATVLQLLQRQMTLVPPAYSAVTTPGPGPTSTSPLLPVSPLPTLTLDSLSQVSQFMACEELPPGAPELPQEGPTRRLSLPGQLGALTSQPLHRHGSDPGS

5HT2B [3] = biological target: T1, 5HT2B; test: 5HT2B binding (Ki of Biological Data Table)
% Protein Binding = format: in vitro ADME
D3 = D3 (Homo sapiens, UniProt P35462); test: D3 binding (Ki)
Chain of D3 (P35462 whole entry): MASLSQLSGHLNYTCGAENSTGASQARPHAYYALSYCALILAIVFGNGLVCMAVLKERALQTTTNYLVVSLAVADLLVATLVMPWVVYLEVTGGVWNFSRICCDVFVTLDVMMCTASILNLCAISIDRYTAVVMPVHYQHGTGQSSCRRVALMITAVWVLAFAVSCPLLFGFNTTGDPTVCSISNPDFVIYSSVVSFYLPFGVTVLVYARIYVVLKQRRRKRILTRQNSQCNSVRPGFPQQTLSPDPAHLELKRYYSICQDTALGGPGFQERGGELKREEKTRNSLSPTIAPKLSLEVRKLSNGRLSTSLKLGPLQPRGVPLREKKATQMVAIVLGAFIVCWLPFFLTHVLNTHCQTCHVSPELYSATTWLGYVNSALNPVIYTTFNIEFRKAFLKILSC

5HT1A [4] = biological target: T3, 5HT1A (Homo sapiens, UniProt P08908); test: 5HT1A binding (Ki)
T3 sequence (P08908 1-422): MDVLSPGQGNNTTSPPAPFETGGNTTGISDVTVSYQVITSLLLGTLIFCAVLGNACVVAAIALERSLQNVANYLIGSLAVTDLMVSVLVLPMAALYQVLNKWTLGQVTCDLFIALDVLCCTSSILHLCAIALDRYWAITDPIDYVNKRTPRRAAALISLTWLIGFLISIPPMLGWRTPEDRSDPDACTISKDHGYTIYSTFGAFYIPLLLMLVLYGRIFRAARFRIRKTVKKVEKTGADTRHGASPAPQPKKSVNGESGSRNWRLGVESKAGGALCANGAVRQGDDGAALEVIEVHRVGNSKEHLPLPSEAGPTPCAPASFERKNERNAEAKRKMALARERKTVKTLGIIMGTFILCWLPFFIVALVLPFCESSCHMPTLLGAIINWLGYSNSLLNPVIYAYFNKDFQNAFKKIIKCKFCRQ

5HT2A [5] = biological target: T4, 5HT2A (Homo sapiens, UniProt P28223); test: 5HT2A binding (Ki)
T4 sequence (P28223 whole entry, species assumed): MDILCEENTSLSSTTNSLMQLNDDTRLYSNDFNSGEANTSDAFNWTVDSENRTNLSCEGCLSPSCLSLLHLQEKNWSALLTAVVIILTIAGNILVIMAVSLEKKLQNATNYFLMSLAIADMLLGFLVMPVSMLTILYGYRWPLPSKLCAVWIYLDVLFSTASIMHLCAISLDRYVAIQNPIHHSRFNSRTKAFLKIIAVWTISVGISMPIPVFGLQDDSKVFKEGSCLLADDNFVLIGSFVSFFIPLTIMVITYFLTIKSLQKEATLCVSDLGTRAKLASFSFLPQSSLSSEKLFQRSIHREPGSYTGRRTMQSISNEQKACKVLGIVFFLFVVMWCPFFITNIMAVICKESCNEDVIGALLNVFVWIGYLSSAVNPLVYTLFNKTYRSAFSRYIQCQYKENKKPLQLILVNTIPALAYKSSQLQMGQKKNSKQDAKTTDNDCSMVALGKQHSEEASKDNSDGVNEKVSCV

D4.4 = biological target: T5, D4.4 (Homo sapiens, UniProt P21917); test: D4.4 binding (Ki)
T5 sequence (P21917 1-419): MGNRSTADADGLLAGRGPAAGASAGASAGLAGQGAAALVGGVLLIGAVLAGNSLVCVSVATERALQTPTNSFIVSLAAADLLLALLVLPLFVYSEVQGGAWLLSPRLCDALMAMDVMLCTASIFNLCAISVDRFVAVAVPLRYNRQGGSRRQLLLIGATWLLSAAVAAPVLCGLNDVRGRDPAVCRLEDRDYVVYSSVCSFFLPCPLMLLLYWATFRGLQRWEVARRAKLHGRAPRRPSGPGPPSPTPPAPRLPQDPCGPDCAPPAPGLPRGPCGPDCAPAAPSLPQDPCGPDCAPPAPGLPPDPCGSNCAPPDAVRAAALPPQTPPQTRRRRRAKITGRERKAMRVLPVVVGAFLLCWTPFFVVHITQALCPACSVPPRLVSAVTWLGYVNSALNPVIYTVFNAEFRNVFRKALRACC

AMES Test = format: cell-based
D2L = D2L (Homo sapiens, UniProt P14416); test: Functional activity D2L; format: cell-based
Chain of D2L (P14416 whole entry): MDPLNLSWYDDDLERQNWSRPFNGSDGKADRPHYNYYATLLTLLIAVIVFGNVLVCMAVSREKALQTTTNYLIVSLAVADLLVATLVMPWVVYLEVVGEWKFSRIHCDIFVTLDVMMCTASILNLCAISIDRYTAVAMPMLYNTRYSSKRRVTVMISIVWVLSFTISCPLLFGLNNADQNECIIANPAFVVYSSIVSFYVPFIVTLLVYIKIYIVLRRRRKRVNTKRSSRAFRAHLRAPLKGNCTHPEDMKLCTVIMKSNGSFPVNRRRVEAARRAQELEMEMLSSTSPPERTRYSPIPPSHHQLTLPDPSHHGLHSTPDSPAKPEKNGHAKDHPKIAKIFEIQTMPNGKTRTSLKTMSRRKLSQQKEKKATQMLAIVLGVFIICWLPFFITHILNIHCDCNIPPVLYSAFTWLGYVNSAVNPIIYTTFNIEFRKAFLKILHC

D2S [6] = biological target: T2, D2S; test: Functional activity D2S; format: cell-based
5HT2A [7] = biological target: T4, 5HT2A; test: Functional activity 5HT2A; format: cell-based
5HT1A [8] = biological target: T3, 5HT1A; test: Functional activity 5HT1A; format: cell-based
D4 = biological target: T6, D4 (Homo sapiens, UniProt P21917); test: D4 binding (Ki)
T6 sequence (P21917 1-419): T5 sequence (P21917 1-419)

[9] = po, read-out: Rat pK: T1/2 (po)
[10] = iv, read-out: Rat pK: T1/2 (iv)

T1 sequence (P41595 whole entry, species assumed): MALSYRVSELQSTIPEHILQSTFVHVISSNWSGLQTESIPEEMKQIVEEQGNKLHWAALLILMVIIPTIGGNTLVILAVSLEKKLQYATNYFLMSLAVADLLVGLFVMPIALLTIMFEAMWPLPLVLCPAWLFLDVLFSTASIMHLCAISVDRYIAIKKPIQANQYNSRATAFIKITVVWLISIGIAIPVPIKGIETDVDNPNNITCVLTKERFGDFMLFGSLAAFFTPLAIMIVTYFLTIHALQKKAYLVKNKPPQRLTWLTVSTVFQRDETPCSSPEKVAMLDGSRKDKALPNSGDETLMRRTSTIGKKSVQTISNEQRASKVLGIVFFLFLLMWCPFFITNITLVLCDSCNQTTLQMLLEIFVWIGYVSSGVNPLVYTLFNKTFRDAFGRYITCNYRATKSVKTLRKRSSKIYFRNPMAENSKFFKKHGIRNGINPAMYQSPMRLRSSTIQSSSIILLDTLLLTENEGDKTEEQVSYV

SMILES	pIC50 (5HT2B [1])	half-life (Rat pK; [9]) [min]	half-life (HLM T1/2) [min]	pKi (D2S [2]; NA: Not Active)	hERG (% Inhibition at 1 uM) (hERG)	bioavailability (Rat pK; po) [%]	also measured
c1ccc(CN2CCC(Nc3ncnc4sc5c(c34)CCCC5)CC2)cc1 [Example B1, N-(1-benzylpiperidin-4-yl)5,6,7,8-tetrahydro-benzo[4,5]thieno[2,3-d]pyrimidin-4-amine]	6.96	60	< 15				
Fc1cccc(CN2CCC(Nc3ncnc4sc5c(c34)CCCC5)CC2)c1 [Example B3, N-(1-(3-fluorobenzyl)piperidin-4-yl)5,6,7,8-tetrahydro-bcnzo[4,5]thieno[2,3-d]pyrimidin-4-amine]	7.00		4.3	6.62	58.5%		pIC50 (IP3): 7.65
N#Cc1cccc(CN2CCC(Nc3ncnc4sc5c(c34)CCCC5)CC2)c1 [Example B11, 3-((4-(5,6,7,8-tetrahydro-benzo[4,5]thieno[2,3-d]pyrimidin-4-ylamino)piperidin-1-yl)methyl)benzonitrile, dihydrochloride]			< 15		hERG (% Inhibition at 1 uM): 44.9		% at 1 nM (5HT2B) (5HT2B [3]; 1 nM): 35%; % at 10 nM (5HT2B) (5HT2B [3]; 10 nM): 82%; % at 100 nM (5HT2B) (5HT2B [3]; 100 nM): 101%
CC(c1cccc(F)c1)N1CCC(Nc2ncnc3sccc23)CC1 (stereo not drawn) [Example B12, N-(1-(1-(3-fluorophenyl)ethyl)piperidin-4-yl) thieno[2,3-d]pyrimidin-4-amine, dihydrochloride]			11	6.60	hERG (% Inhibition at 1 uM): 58.5		
CC(C)Cc1cc2c(NC3CCN(C(C)c4cccc(F)c4)CC3)ncnc2s1 (stereo not drawn) [Example B14, N-(1-(1-(3-fluorophenyl)ethyl)piperidin-4-yl)-6-isobutylthieno[2,3-d] pyrimidin-4-amine, dihydrochloride]	5.28	30	< 15		76.1%	4	half-life (Rat pK; [10]): 30 min
CC(c1cc(F)cc(F)c1)N1CCC(Nc2ncnc3sc4c(c23)CCCC4)CC1 (stereo not drawn) [Example B17, N-(1-(1-(3,5-difluorophenyl)ethyl)piperidin-4-yl)5,6,7,8-tetrahydro-benzo [4,5]thieno[2,3-d] pyrimidin-4-amine, dihydrochloride]	5.89		< 15				
CC(C)Cc1cc2c(NC3CCN(C(C)c4cc(F)cc(F)c4)CC3)ncnc2s1 (stereo not drawn) [Example B18, N-(1-(1-(3,5-difluorophenyl)ethyl)piperidin-4-yl)-6-isobutylthieno[2,3-d]pyrimidin-4-amine, dihydrochloride]	5.24	24	7		31%	3	half-life (Rat pK; [10]): 12 min; fraction unbound (% Protein Binding): 0.062
Fc1cc(F)cc(CN2CCC(Nc3ncnc4sccc34)CC2)c1 [Example B30, N-(1-(3,5-difluorobenzyl)piperidin-4-yl) thieno[2,3-d]pyrimidin-4-amine, dihydrochloride]	5.80	48	19		62%	17	
CC(C)c1cc2c(NC3CCN(Cc4cc(F)cc(F)c4)CC3)ncnc2s1 [Example B31, N-(1-(3,5-difluorobenzyl)piperidin-4-yl)-6-isopropylthieno [2,3-d] pyrimidin-4-amine, dihydrochloride]	6.08	30	8	6.64		10	
CC(C)c1cc2c(NC3CCN(Cc4cc(F)cc(F)c4)CC3)ncnc2s1 [Example B32, N-(1-(3,5-difluorobenzyl)piperidin-4-yl)-6-isopropylthieno [2,3-d] pyrimidin-4-amine, monomaleate]	6.35						pIC50 (IP3): 8.82
Fc1cc(F)cc(CN2CCC(Nc3ncnc4sc(Cl)cc34)CC2)c1.O=C(O)/C=C\C(=O)O [Example B34, N-(1-(3,5-difluorobenzyl)piperidin-4-yl)-6-chlorothieno[2,3-d]pyrimidin-4-amine, monomaleate]	6.17	66		7.18	29.4%	29.1	pKi (D3): 6.85; pKi (5HT1A [4]): 7.46; pKi (5HT2A [5]): 6.59; pKi (D4.4): 8.47; pIC50 (IP3): 9.13; half-life (Rat pK; [10]): 24 min; fraction unbound (% Protein Binding): 0.01; AMES Test (AMES Test): Negative; pIC50 (D2L): 7.76; pIC50 (D2S [6]): 7.20; Functional Activity IC50 (5HT2A) (5HT2A [7]): Not Active; Functional Activity IC50 (5HT1A) (5HT1A [8]): Not Active
Cc1c(Cl)sc2ncnc(NC3CCN(Cc4cccc(F)c4)CC3)c12.O=C(O)/C=C\C(=O)O [Example B38, N-(1-(3-fluorobenzyl)piperidin-4-yl)-6-chloro-5-methylthieno[2,3-d]pyrimidin-4-amine, monomaleate]	6.25	54		6.77	78.1%	18.2	pIC50 (IP3): 8.64; half-life (Rat pK; [10]): 24 min; fraction unbound (% Protein Binding): 0.062
Clc1cc2c(NC3CCN(Cc4cccnc4)CC3)ncnc2s1 [Example B47, 6-chloro-N-(1-((pyridin-3-yl)methyl)piperidin-4-yl)thieno [2,3-d]pyrimidin-4-amine, monomaleate]			12				pKi (D2S [2]): < 5.00
Fc1ccc(-c2c(Cl)sc3ncnc(NC4CCN(Cc5cc(F)cc(F)c5)CC4)c23)cc1 [Example B48, N-(1-(3,5-difluorobenzyl)piperidin-4-yl)-6-chloro-5-(4-fluorophenyl) thieno[2,3-d]pyrimidin-4-amine, monomaleate]			< 15				pKi (D2S [2]): 5.96; Ki (5HT1A) (5HT1A [4]): not Active
N#Cc1cc(CN2CCC(Nc3ncnc4sc(Cl)cc34)CC2)ccc1F [Example B50, 5-((4-(6-chlorothieno [2,3-d]pyrimidin-4-ylamino)piperidin-1-yl)methyl)-2-fluorobenzonitrile, monomaleate]	7.57	53.4	28	6.17	23.7%	22.6	pKi (5HT1A [4]): 7.00; pKi (D4.4): 8.27; half-life (Rat pK; [10]): 37.2 min; AMES Test (AMES Test): Negative
CNC(=O)c1cccc(CN2CCC(Nc3ncnc4sc(Cl)cc34)CC2)c1 [Example B55, 3-((4-(6-chlorothieno [2,3-d]pyrimidin-4-ylamino)piperidin-1-yl)methyl)-N-methylbenzamide, monomaleate]			34				pKi (D4): 6.48
O=S(=O)(c1cccc(CN2CCC(Nc3ncnc4sc(Cl)cc34)CC2)c1)C(F)(F)F [Example B56, N-(1-(3-(trifluoromethylsulfonyl)benzyl)piperidin-4-yl)-6-chlorothieno[2,3-d] pyrimidin-4-amine, monomaleate]			< 15				pKi (D2S [2]): 5.51; pKi (D4; read-out: Ki (D4)): 6.74
CN(C)C(=O)c1cccc(CN2CCC(Nc3ncnc4sc(Cl)cc34)CC2)c1 [Example B57, 3-((4-(6-chlorothieno[2,3-d]pyrimidin-4-ylamino)piperidin-1-yl)methyl)-N,N-dimethylbenzamide, monomaleate]			24				pKi (D4; read-out: Ki (D4)): 6.27
CS(=O)(=O)c1cccc(CN2CCC(Nc3ncnc4sc(Cl)cc34)CC2)c1 [Example B58, N-(1-(3-(methylsulfonyl)benzyl)piperidin-4-yl)-6-chlorothieno[2,3-d]pyrimidin-4-amine, monomaleate]			27				pKi (D2S [2]): < 5.00; pKi (D4; read-out: Ki (D4)): 6.37
